Patent publication US5153352A, “Process for preparation of intermediates of carbocyclic nucleoside analogs” (priority 1990, dated 1992)

What was measured:
[1] = tested on: Human Immunodeficiency Virus (HIV); test: HIV CPE inhibition assay in ATH8 cells; format: cell-based
Method: (§1) The ATH8 human T-cell line expresses high levels of the CD4 surface antigen and is quite sensitive to the cytopathogenic effect (CPE) of HIV. The cells were propagated in RPMI 1640 medium supplemented with 4mM glutamine, 15% heat-inactivated fetal bovine serum (Biocell), antibiotics (50 units of penicillin and […] of streptomycin per ml), and 50 units of recombinant-derived human interleukin-2 (ala-125; AMGen Biologicals) per ml.
The clone H9 cell line is another CD4^+ human T-cell line which is permissive for HIV replication but largely resistant to virus induced CPE. H9 cells productively infected with the HTLV IIIB strain of HIV served as the source of infectious virus. These cells were propagated in RPMI 1640 medium supplemented with glutamine and antibiotics as described above, and with 20% heat-inactivated fetal bovine serum. Freshly harvested, undiluted culture supernatant from the H9/HTLV-IIIB producer cells was used for infectious virus inoculum.
The screening of compounds for antiviral activity was performed using a modification of the CPE inhibition assay originally developed by Broder and co workers. This assay is based on the ability of uninfected ATH8 cells to grow and form a pellet at the bottom of a culture tube. Starting about 4 days after HIV addition, infected ATH8 cells begin to die and the pellet starts to break up. By day 10 a clear differential is observable in the size of the cell pellet in uninfected control wells versus infected control wells. The protective effect of test compounds can be assessed by adding them at varying concentrations to the cultured cells at the time of virus infection, then monitoring the status of the cell pellet.
(§2) ATH8 cells were used as the primary target in the HIV induced CPE inhibition assay. Cells were treated with polybrene (2 ug/ml in growth medium) for 30 minutes at 37° C., then collected by gentle centrifugation (40×g for 15 minutes at room temperature) and resuspended in clarified (8000×g for 15 minutes at 4° C.) supernate freshly harvested from 48 hours post passage H9/HTL IIIB cells. Following a 60-minute adsorption period at 37° C., the cells were dispensed into the U-bottom wells of 96-well trays (1×10^4 cells in 0.1 ml per well). An equal volume (0.1 ml) of supplemented RPMI 1640 medium containing test compound and twice the normal concentration of interleukin-2 was then added to each well. Test compounds were evaluated at seven half-log dilutions ranging from 100 uq/ml to 0.1 uq/ml. […]
(§3) Between 7 and 10 days post infection, all wells were visually monitored for the degree of CPE inhibition as reflected by cell pellet size, and aliquots were taken from selected wells for determination of cell number and viability (based on trypan blue dye exclusion).

[2] = compound cytotoxicity in ATH8 cells (HIV CPE inhibition assay); format: cell-based; details: human, read-out: MTC
Method: as §1
as §2, with “An equal volume (0.1 ml) of supplemented RPMI 1640 medium containing test compound and twice the normal concentration of interleukin-2 was then added to each well.” left out
as §3

Structure (SMILES): OCC1CC(n2cnc3c(Cl)ncnc32)C1CO (centres unmarked) [Example 4B, 3-(6'-chloro-9'H-purin-9'-yl)-1,2-bis(hydroxymethyl)cyclobutane]
- VR [1]: 1.1
- MCC [2]: 10 µg/mL
